Assay results reported in ChEMBL document CHEMBL1201862, “PubChem BioAssay data set” (2004).
Calls of active or inactive are those of the source. Unless noted, the rule behind the calls is not given here.

What was measured:
Transthyretin = Transthyretin (Homo sapiens, UniProt P02766); assay: Luminescence-based cell-based high throughput dose response assay to identify activators of Transthyretin (TTR) transcription.; type: functional
[1] = biological target: T1, Methionyl-tRNA synthetase, putative (Trypanosoma brucei brucei, UniProt Q38C91); type: functional, Trypanosoma brucei brucei strain 927/4 GUTat10.1
T1 sequence (Q38C91 whole entry): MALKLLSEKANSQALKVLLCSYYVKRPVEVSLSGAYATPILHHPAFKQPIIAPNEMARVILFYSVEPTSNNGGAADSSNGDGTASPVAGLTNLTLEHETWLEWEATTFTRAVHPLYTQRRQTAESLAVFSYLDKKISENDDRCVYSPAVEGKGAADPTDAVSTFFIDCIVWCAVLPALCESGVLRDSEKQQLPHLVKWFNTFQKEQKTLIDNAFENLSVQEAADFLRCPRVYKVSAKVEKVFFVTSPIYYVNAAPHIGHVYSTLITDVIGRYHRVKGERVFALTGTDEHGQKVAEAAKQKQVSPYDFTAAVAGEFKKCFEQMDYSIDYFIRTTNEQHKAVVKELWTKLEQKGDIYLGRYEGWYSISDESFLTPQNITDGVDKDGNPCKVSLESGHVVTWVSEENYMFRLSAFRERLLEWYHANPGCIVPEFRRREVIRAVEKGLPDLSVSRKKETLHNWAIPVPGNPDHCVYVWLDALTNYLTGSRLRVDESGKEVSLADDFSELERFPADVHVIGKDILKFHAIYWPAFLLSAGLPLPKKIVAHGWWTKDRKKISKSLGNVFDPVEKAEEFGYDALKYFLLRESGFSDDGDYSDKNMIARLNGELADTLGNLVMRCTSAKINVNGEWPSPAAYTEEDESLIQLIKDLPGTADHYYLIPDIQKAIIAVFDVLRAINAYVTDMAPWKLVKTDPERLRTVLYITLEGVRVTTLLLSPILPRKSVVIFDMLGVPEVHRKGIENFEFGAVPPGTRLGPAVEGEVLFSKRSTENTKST

[2] = Counterscreen for inhibitors of Trypanosoma brucei methionyl tRNA synthetase (MetRS): Luminescence-based cell-based high throughput dose response assay to identify compounds that are cytotoxic to Jurkat human T lymphocyte cells.; type: functional
[3] = biological target: T1, Methionyl-tRNA synthetase, putative; type: functional, Trypanosoma brucei brucei strain 927/4 GUTat10.1; remark: listed apart in the source
[4] = inhibition of trypanosomal methionyl-tRNA synthetase – biochemical, fluorescence polarization, dose response, orthogonal assay for T. brucei MetRS inhibitor project, late-stage follow-up (AID 686969)
[5] = Late stage counterscreen for inhibitors of Trypanosoma brucei methionyl tRNA synthetase (MetRS): Luminescence-based cell-based high throughput dose response assay to identify compounds that are cytotoxic to Jurkat human T lymphocyte cells.; type: functional
[6] = cytotoxicity in SR immunoblastic lymphoma cells – cell-based, CellTiter-Glo ATP luminescence, 8-48 h, dry powder, mechanism study for HRAS target identification, late-stage follow-up (AID 720608); type: functional
[7] = cytotoxicity in SNB-75 CNS cells – cell-based, CellTiter-Glo ATP luminescence, several timepoints, dry powder, mechanism study for HRAS target identification, late-stage follow-up (AID 720624); type: functional
[8] = time-course viability loss in HT-29 cells – cell-based, CellTiter-Glo, multiple timepoints, dry powder, HRas target identification project, dose response (AID 720598); type: functional
[9] = cytotoxicity in LOX IMVI melanoma cells – cell-based, CellTiter-Glo ATP luminescence, 8/24/48 h, dry powder, HRAS target identification, dose response (AID 720602); type: functional
[10] = cytotoxicity in CCRF-CEM lymphoblastic leukemia cells – cell-based, CellTiter-Glo ATP luminescence, 8/24/48 h, dry powder, HRAS target identification, dose response (AID 720607); type: functional
[11] = cervical cancer cell viability loss – HeLa, 24 h, plate reader, powder samples, set 3, cytotoxicity control, dose response (AID 651864); type: functional, cell-based
[12] = HepG2 hepatoma cell viability loss – plate reader, dry powder, cytotoxicity control, dose response (AID 651947); type: functional, cell-based
Fibrinogen beta chain [13] = biological target: T2, Fibrinogen beta chain (Homo sapiens, UniProt P02675); assay: Fluorescence polarization-based biochemical high throughput dose response assay to identify inhibitors that disrupt the binding of a cyclic peptide (Tn6) to the fibrin proteolytic product D-Dimer and fragment E complex [DD(E )].
Fibrinogen beta chain [14] = biological target: T2, Fibrinogen beta chain; assay: Fluorescence polarization-based biochemical high throughput dose response assay to identify inhibitors that disrupt the binding of a cyclic peptide (Tn7) to the fibrin proteolytic product D-Dimer and fragment E complex [DD(E )].

T2 sequence (P02675 whole entry, the tested form may be a part): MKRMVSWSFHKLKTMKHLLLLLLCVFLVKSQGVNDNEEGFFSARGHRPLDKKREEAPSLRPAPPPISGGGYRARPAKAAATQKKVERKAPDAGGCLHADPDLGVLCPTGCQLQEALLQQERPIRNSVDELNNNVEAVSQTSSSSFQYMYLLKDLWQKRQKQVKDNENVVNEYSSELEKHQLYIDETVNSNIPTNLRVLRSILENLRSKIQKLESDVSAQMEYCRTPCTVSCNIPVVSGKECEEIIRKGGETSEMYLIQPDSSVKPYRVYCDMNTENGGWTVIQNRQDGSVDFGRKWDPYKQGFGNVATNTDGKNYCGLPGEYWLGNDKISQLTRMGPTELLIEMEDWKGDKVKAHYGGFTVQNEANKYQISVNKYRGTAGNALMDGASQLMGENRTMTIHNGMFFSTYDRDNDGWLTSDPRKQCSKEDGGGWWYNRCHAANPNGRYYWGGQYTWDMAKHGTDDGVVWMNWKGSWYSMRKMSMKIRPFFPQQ

Question: With `CC1CN(Cc2ccccc2)c2nc3c(c(=O)n(CC(N)=O)c(=O)n3C)n2C1` (stereo not given) as the molecule, how does the EC50 (Transthyretin) read?
Answer: Its EC50 is > 167 µM (inactive).

Question: Which IC50 [1] does the source give for `COc1ccc(CNC(=O)CSc2n[nH]c3c4cc(F)ccc4nc-3n2)cc1` here?
Answer: Its IC50 is 4.39 µM (active).

Question: And the IC50 [2]?
Answer: Its IC50 is 83.3 µM (inactive).

Question: And the IC50 [3]?
Answer: Its IC50 is 0.879 µM (active).

Question: What about the IC50 [4] of the same molecule?
Answer: Its IC50 is > 1.54 µM (active).

Question: What about the IC50 [5] of the same molecule?
Answer: The IC50 was > 83.3 µM (inactive).

Question: Which AC50 [6] does the source give for `Cc1onc(C(=O)N2CCN(C(c3ccc(Cl)cc3)c3ccc(Cl)cc3)CC2)c1[N+](=O)[O-]` here?
Answer: Its AC50 is 0.181 µM (active).

Question: And the AC50 [7]?
Answer: The AC50 was 0.723 µM (active).

Question: What about the AC50 [8] of the same molecule?
Answer: Its AC50 is 1.3 µM (active).

Question: And the AC50 [9]?
Answer: The AC50 was 0.199 µM (active).

Question: And the AC50 [10]?
Answer: Its AC50 is 0.234 µM (active).

Question: Which AC50 [11] does the source give for `CCn1nnc(CCc2ccc(N3CCCC3)cc2)n1` here?
Answer: The AC50 was > 160 µM (inactive).

Question: Which AC50 [12] does the source give for `c1ccc(CSc2nnc(-c3ccccc3)s2)cc1` here?
Answer: Its AC50 is 33.8 µM (active).

Question: For `CCOC(=O)C1(C)C(=O)CC2c3nc4ccccc4cc3CN2C1=O` (stereo not given), which IC50 (Fibrinogen beta chain [13]) is on record?
Answer: Its IC50 is 9.24 µM (active).

Question: And the IC50 (Fibrinogen beta chain [14])?
Answer: The IC50 was > 83.2 µM (inactive).
